Reference: article PMC3961306, “Comparison of the Cancer Gene Targeting and Biochemical Selectivities of All Targeted Kinase Inhibitors Approved for Clinical Use” (PLoS ONE, 2014)

Legend:
Test in all cases: Kinase profiling in a biochemical assay panel (mobility shift assays and ELISA), %-inhibition at 1 μM; selectivity entropy
[1] = biological target: T1, panel of more than 300 wild-type and mutant kinases (313 kinase panel) (Homo sapiens, UniProt Q9UL54)
T1 sequence (Q9UL54 1-1235): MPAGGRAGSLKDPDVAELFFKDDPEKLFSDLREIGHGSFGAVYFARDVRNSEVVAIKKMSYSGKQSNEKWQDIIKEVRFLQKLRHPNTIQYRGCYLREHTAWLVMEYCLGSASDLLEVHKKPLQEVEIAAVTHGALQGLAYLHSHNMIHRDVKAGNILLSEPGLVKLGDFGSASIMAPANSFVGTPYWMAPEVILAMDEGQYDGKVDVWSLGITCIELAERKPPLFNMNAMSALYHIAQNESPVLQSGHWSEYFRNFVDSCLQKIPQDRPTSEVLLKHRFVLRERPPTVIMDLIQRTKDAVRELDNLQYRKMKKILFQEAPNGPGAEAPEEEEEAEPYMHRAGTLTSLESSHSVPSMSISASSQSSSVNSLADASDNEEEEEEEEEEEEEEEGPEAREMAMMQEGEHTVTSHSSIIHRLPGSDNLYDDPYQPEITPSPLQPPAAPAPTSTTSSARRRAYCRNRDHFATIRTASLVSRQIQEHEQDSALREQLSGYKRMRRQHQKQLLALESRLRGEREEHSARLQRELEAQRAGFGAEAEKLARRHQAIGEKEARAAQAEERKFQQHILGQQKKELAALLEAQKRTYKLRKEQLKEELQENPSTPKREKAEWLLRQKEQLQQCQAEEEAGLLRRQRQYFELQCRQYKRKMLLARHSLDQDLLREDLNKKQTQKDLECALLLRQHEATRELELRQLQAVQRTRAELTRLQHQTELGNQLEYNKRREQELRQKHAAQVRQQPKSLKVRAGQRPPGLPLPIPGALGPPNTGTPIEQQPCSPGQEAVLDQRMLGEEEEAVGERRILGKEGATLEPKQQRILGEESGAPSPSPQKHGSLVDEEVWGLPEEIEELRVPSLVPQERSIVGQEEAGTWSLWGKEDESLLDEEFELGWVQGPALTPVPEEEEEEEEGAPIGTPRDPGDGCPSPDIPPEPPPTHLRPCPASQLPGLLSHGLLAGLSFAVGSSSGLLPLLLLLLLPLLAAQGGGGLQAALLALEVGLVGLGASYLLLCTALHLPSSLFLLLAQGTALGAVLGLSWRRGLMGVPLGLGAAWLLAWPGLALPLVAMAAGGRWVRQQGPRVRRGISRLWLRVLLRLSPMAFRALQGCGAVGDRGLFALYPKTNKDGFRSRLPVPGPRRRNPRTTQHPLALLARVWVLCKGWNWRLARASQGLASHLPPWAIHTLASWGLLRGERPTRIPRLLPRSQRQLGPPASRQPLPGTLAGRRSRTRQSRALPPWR

[2] = biological target: T2, panel of more than 300 wild-type and mutant kinases (313 kinase panel) (Homo sapiens, UniProt Q05513)
T2 sequence (Q05513 1-592): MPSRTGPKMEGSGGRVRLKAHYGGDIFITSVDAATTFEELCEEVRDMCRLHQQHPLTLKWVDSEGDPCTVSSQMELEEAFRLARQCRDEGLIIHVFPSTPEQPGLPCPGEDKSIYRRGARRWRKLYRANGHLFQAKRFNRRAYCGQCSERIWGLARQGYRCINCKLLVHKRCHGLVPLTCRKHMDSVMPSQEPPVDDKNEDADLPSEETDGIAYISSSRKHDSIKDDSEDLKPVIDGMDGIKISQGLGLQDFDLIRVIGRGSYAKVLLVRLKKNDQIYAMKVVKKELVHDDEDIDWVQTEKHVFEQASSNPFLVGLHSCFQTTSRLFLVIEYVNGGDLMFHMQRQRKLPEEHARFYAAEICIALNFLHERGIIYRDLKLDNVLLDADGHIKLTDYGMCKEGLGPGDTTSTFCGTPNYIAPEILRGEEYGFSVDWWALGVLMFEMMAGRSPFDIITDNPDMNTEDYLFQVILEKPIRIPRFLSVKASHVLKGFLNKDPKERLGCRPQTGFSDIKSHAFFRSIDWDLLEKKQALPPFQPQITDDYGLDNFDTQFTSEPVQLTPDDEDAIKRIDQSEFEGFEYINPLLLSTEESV

[3] = biological target: panel of more than 300 wild-type and mutant kinases (313 kinase panel) (Homo sapiens, UniProt P17612)
[4] = biological target: panel of more than 300 wild-type and mutant kinases (313 kinase panel) (Homo sapiens, UniProt Q14012)

SMILES | %-inhibition of TAOK2 ([1]; kinase TAOK2, 1 μM) | %-inhibition of PKCζ ([2]; kinase PKCζ, 1 μM) | %-inhibition of PKACα ([3]; kinase PKACα, 1 μM) | %-inhibition, CaMK1α ([4]; 1 µM) | %-inhibition, CaMK1α ([4]; kinase CaMK1α, 1 μM compound) | %-inhibition of TAOK2 ([1]; 1 µM) | %-inhibition of PKCζ ([2]; 1 µM) | %-inhibition of PKACα ([3]; 1 µM)
COc1cc(Nc2c(C#N)cnc3cc(OCCCN4CCN(C)CC4)c(OC)cc23)c(Cl)cc1Cl [bosutinib] | 10% | 14% | 58% | 9% |  |  |  | 
COc1cc2nccc(Oc3ccc(NC(=O)C4(C(=O)Nc5ccc(F)cc5)CC4)cc3)c2cc1OC [cabozantinib] | 6% | 4% | -4.67% |  | -0.897% |  |  | 
C[C@@H](Oc1cc(-c2cnn(C3CCNCC3)c2)cnc1N)c1c(Cl)ccc(F)c1Cl [crizotinib] | 33% | 9% | -6% |  | 0.734% |  |  | 
CC(C)(C)c1nc(-c2cccc(NS(=O)(=O)c3c(F)cccc3F)c2F)c(-c2ccnc(N)n2)s1 [dabrafenib] | 34% | 5% |  |  |  |  |  | 
Cc1nc(Nc2ncc(C(=O)Nc3c(C)cccc3Cl)s2)cc(N2CCN(CCO)CC2)n1 [dasatinib] |  |  | 0.736% |  | 1.38% |  |  | 
C#Cc1cccc(Nc2ncnc3cc(OCCOC)c(OCCOC)cc23)c1 [erlotinib] |  |  |  | 2.51% |  | -8% | 7% | 4.34%
CO[C@H]1C[C@@H]2CC[C@@H](C)[C@@](O)(O2)C(=O)C(=O)N2CCCC[C@H]2C(=O)O[C@H]([C@H](C)C[C@@H]2CC[C@@H](OCCO)[C@H](OC)C2)CC(=O)[C@H](C)/C=C(\C)[C@@H](O)[C@@H](OC)C(=O)[C@H](C)C[C@H](C)/C=C/C=C/C=C/1C [everolimus] | -0.8% | 5% | -6% |  | -8% |  |  | 
O=S(=O)(c1cccc2cnccc12)N1CCCNCC1 [fasudil] | -2.59% | 7.57% |  |  | -5.45% |  |  | 
CS(=O)(=O)CCNCc1ccc(-c2ccc3ncnc(Nc4ccc(OCc5cccc(F)c5)c(Cl)c4)c3c2)o1 [lapatinib] | -5.44% | 0% | 0.663% |  | 8% |  |  | 
Cc1cn(-c2cc(NC(=O)c3ccc(C)c(Nc4nccc(-c5cccnc5)n4)c3)cc(C(F)(F)F)c2)cn1 [nilotinib] | 7.47% | 5.32% |  |  | -15% |  |  | 3.31%
Cc1ccc(Nc2nccc(N(C)c3ccc4c(C)n(C)nc4c3)n2)cc1S(N)(=O)=O [pazopanib] | 53% | -0.674% | 2% |  | 5.59% |  |  | 
Cc1ccc(C(=O)Nc2ccc(CN3CCN(C)CC3)c(C(F)(F)F)c2)cc1C#Cc1cnc2cccnn12 [ponatinib] | 74% | 14% |  |  |  |  |  | 
CNC(=O)c1cc(Oc2ccc(NC(=O)Nc3ccc(Cl)c(C(F)(F)F)c3)c(F)c2)ccn1 [regorafenib] | 75% | 5% | -5.47% |  | -6% |  |  | 
N#CC[C@H](C1CCCC1)n1cc(-c2ncnc3[nH]ccc23)cn1 [ruxolitinib] | 35% | -9% |  |  |  |  |  | 48%
CO[C@H]1C[C@@H]2CC[C@@H](C)[C@@](O)(O2)C(=O)C(=O)N2CCCC[C@H]2C(=O)O[C@H]([C@H](C)C[C@@H]2CC[C@@H](OC(=O)C(C)(CO)CO)[C@H](OC)C2)CC(=O)[C@H](C)/C=C(\C)[C@@H](O)[C@@H](OC)C(=O)[C@H](C)C[C@H](C)/C=C/C=C/C=C/1C [temsirolimus] |  | 5% | -6% |  | -6.61% |  |  | 
CC(=O)Nc1cccc(-n2c(=O)n(C3CC3)c(=O)c3c(Nc4ccc(I)cc4F)n(C)c(=O)c(C)c32)c1 [trametinib] | -2.59% | 4.31% | 8.52% |  | -2% |  |  | 
COc1cc2c(Nc3ccc(Br)cc3F)ncnc2cc1OCC1CCN(C)CC1 [vandetanib] | -3.51% | 1.3% | 1.29% |  | -3% |  |  | 
CCCS(=O)(=O)Nc1ccc(F)c(C(=O)c2c[nH]c3ncc(-c4ccc(Cl)cc4)cc23)c1F [vemurafenib] | 5.35% | 13% | -4% |  | -3.18% |  |  | 
